# Results from ChEMBL document CHEMBL3046559, “Sterile oat (Avena sterilis L.) cross-resistance profile to ACCase-inhibiting herbicides in Greece” (2012).
# Experiments:
# Type in all cases: functional
# Avena sterilis [1] = test: Herbicidal activity against Avena sterilis accession P09 assessed as weed survival at 32 times field recommended herbicide dose
# Avena sterilis [2] = test: Herbicidal activity against Avena sterilis accession P15 assessed as weed survival at 1 times field recommended herbicide dose
# Avena sterilis [3] = test: Herbicidal activity against Avena sterilis accession P02 assessed as induction of weed mortality
# Avena sterilis [4] = test: Herbicidal activity against Avena sterilis accession P04 assessed as weed survival at 4 times field recommended herbicide dose
# Avena sterilis [5] = test: Herbicidal activity against Avena sterilis accession P09 assessed as weed survival at 1 times field recommended herbicide dose
# Avena sterilis [6] = test: Herbicidal activity against Avena sterilis accession P18 assessed as weed survival at 8 times field recommended herbicide dose
# Avena sterilis [7] = test: Herbicidal activity against Avena sterilis accession P09 assessed as induction of weed mortality
# Avena sterilis [8] = test: Herbicidal activity against Avena sterilis accession P06S assessed as weed survival at 1/8 times field recommended herbicide dose
# Avena sterilis [9] = test: Herbicidal activity against Avena sterilis accession P12 assessed as weed survival at 8 times field recommended herbicide dose
# Avena sterilis [10] = test: Herbicidal activity against Avena sterilis accession P16 assessed as weed survival at 1 times field recommended herbicide dose
# Avena sterilis [11] = test: Herbicidal activity against Avena sterilis accession P12 assessed as weed survival at 1 times field recommended herbicide dose
# Avena sterilis [12] = test: Herbicidal activity against Avena sterilis accession P07 assessed as weed survival at 1 times field recommended herbicide dose
# Avena sterilis [13] = test: Herbicidal activity against Avena sterilis accession P13S assessed as weed survival at 1 times field recommended herbicide dose
# Avena sterilis [14] = test: Herbicidal activity against Avena sterilis accession P02 assessed as weed survival at 4 times field recommended herbicide dose
# Avena sterilis [15] = test: Herbicidal activity against Avena sterilis accession P08 assessed as weed survival at 8 times field recommended herbicide dose
# Avena sterilis [16] = test: Herbicidal activity against Avena sterilis accession P13S assessed as weed survival at 1/8 times field recommended herbicide dose
# Avena sterilis [17] = test: Herbicidal activity against Avena sterilis accession P14 assessed as weed survival at 1 times field recommended herbicide dose
# Avena sterilis [18] = test: Herbicidal activity against Avena sterilis accession P15 assessed as weed survival at 32 times field recommended herbicide dose
# Avena sterilis [19] = test: Herbicidal activity against Avena sterilis accession P11 assessed as weed survival at 32 times field recommended herbicide dose
# Avena sterilis [20] = test: Herbicidal activity against Avena sterilis accession P10S assessed as weed survival at 1 times field recommended herbicide dose
# Avena sterilis [21] = test: Herbicidal activity against Avena sterilis accession P21S assessed as weed survival at 1/8 times field recommended herbicide dose
# Avena sterilis [22] = test: Herbicidal activity against Avena sterilis accession P21S assessed as weed survival at 1 times field recommended herbicide dose
# Avena sterilis [23] = test: Herbicidal activity against Avena sterilis accession P13S assessed as weed survival at 1/32 times field recommended herbicide dose
# Avena sterilis [24] = test: Herbicidal activity against Avena sterilis accession P08 assessed as induction of weed mortality
# Avena sterilis [25] = test: Herbicidal activity against Avena sterilis accession P11 assessed as weed survival at 8 times field recommended herbicide dose
# Avena sterilis [26] = test: Herbicidal activity against Avena sterilis accession P20 assessed as weed survival at 4 times field recommended herbicide dose
# Avena sterilis [27] = test: Herbicidal activity against Avena sterilis accession P10S assessed as weed survival at 1/32 times field recommended herbicide dose
# Avena sterilis [28] = test: Herbicidal activity against Avena sterilis accession P12 assessed as induction of weed mortality
# Avena sterilis [29] = test: Herbicidal activity against Avena sterilis accession P18 assessed as weed survival at 1 times field recommended herbicide dose
# Avena sterilis [30] = test: Herbicidal activity against Avena sterilis accession P11 assessed as weed survival at 16 times field recommended herbicide dose
# Avena sterilis [31] = test: Herbicidal activity against Avena sterilis accession P12 assessed as weed survival at 4 times field recommended herbicide dose
# Avena sterilis [32] = test: Herbicidal activity against Avena sterilis accession P22 assessed as weed survival at 1 times field recommended herbicide dose
# Avena sterilis [33] = test: Herbicidal activity against Avena sterilis accession P09 assessed as weed survival at 8 times field recommended herbicide dose
# Avena sterilis [34] = test: Herbicidal activity against Avena sterilis accession P05 assessed as weed survival at 8 times field recommended herbicide dose
# Avena sterilis [35] = test: Herbicidal activity against Avena sterilis accession P05 assessed as weed survival at 4 times field recommended herbicide dose
# Avena sterilis [36] = test: Herbicidal activity against Avena sterilis accession P01 assessed as induction of weed mortality
# Avena sterilis [37] = test: Herbicidal activity against Avena sterilis accession P07 assessed as weed survival at 4 times field recommended herbicide dose
# Avena sterilis [38] = test: Herbicidal activity against Avena sterilis accession P18 assessed as induction of weed mortality
# Avena sterilis [39] = test: Herbicidal activity against Avena sterilis accession P19S assessed as weed survival at 1/32 times field recommended herbicide dose
# Avena sterilis [40] = test: Herbicidal activity against Avena sterilis accession P17 assessed as weed survival at 8 times field recommended herbicide dose
# Avena sterilis [41] = test: Herbicidal activity against Avena sterilis accession P11 assessed as weed survival at 1 times field recommended herbicide dose
# Avena sterilis [42] = test: Herbicidal activity against Avena sterilis accession P03 assessed as weed survival at 8 times field recommended herbicide dose
# Avena sterilis [43] = test: Herbicidal activity against Avena sterilis accession P10S assessed as induction of weed mortality
# Avena sterilis [44] = test: Herbicidal activity against Avena sterilis accession P02 assessed as weed survival at 16 times field recommended herbicide dose
# Avena sterilis [45] = test: Herbicidal activity against Avena sterilis accession P17 assessed as induction of weed mortality
# Avena sterilis [46] = test: Herbicidal activity against Avena sterilis accession P08 assessed as weed survival at 32 times field recommended herbicide dose
# Avena sterilis [47] = test: Herbicidal activity against Avena sterilis accession P05 assessed as weed survival at 1 times field recommended herbicide dose
# Avena sterilis [48] = test: Herbicidal activity against Avena sterilis accession P05 assessed as induction of weed mortality
# Avena sterilis [49] = test: Herbicidal activity against Avena sterilis accession P15 assessed as induction of weed mortality
# Avena sterilis [50] = test: Herbicidal activity against Avena sterilis accession P01 assessed as weed survival at 32 times field recommended herbicide dose
# Avena sterilis [51] = test: Herbicidal activity against Avena sterilis accession P15 assessed as weed survival at 4 times field recommended herbicide dose
# Avena sterilis [52] = test: Herbicidal activity against Avena sterilis accession P10S assessed as weed survival at 1/4 times field recommended herbicide dose
# Avena sterilis [53] = test: Herbicidal activity against Avena sterilis accession P22 assessed as weed survival at 4 times field recommended herbicide dose
# Avena sterilis [54] = test: Herbicidal activity against Avena sterilis accession P14 assessed as weed survival at 32 times field recommended herbicide dose
# Avena sterilis [55] = test: Herbicidal activity against Avena sterilis accession P03 assessed as induction of weed mortality
# Avena sterilis [56] = test: Herbicidal activity against Avena sterilis accession P17 assessed as weed survival at 4 times field recommended herbicide dose
# Avena sterilis [57] = test: Herbicidal activity against Avena sterilis accession P18 assessed as weed survival at 4 times field recommended herbicide dose
# Avena sterilis [58] = test: Herbicidal activity against Avena sterilis accession P06S assessed as weed survival at 1/16 times field recommended herbicide dose
smiles,measurement,setting,value
C#CCOC(=O)[C@@H](C)Oc1ccc(Oc2ncc(Cl)cc2F)cc1 [CLODINAFOP PROPARGYL],Survival,Avena sterilis [1],0%
same,Survival,Avena sterilis [2],100%
same,GR50,Avena sterilis [3],>1312 gAi/ha
same,Survival,Avena sterilis [4],100%
same,Survival,Avena sterilis [5],63%
same,Survival,Avena sterilis [6],73%
same,GR50,Avena sterilis [7],46 gAi/ha
same,Survival,Avena sterilis [8],80%
same,Survival,Avena sterilis [9],100%
same,Survival,Avena sterilis [10],93%
same,Survival,Avena sterilis [11],100%
same,Survival,Avena sterilis [12],13%
same,Survival,Avena sterilis [13],0%
same,Survival,Avena sterilis [14],100%
same,Survival,Avena sterilis [15],93%
same,Survival,Avena sterilis [16],63%
same,Survival,Avena sterilis [17],97%
same,Survival,Avena sterilis [18],93%
same,Survival,Avena sterilis [19],93%
same,Survival,Avena sterilis [20],0%
same,Survival,Avena sterilis [21],77%
same,Survival,Avena sterilis [22],0%
same,Survival,Avena sterilis [23],80%
same,GR50,Avena sterilis [24],>1312 gAi/ha
same,Survival,Avena sterilis [25],100%
same,Survival,Avena sterilis [26],73%
same,Survival,Avena sterilis [27],83%
same,GR50,Avena sterilis [28],>1312 gAi/ha
same,Survival,Avena sterilis [29],80%
same,Survival,Avena sterilis [30],97%
same,Survival,Avena sterilis [31],97%
same,Survival,Avena sterilis [32],90%
same,Survival,Avena sterilis [33],0%
same,Survival,Avena sterilis [34],40%
same,Survival,Avena sterilis [35],47%
same,GR50,Avena sterilis [36],1053 gAi/ha
same,Survival,Avena sterilis [37],0%
same,GR50,Avena sterilis [38],520 gAi/ha
same,Survival,Avena sterilis [39],100%
same,Survival,Avena sterilis [40],40%
same,Survival,Avena sterilis [41],100%
same,Survival,Avena sterilis [42],97%
same,GR50,Avena sterilis [43],8 gAi/ha
same,Survival,Avena sterilis [44],93%
same,GR50,Avena sterilis [45],283 gAi/ha
same,Survival,Avena sterilis [46],67%
same,Survival,Avena sterilis [47],90%
same,GR50,Avena sterilis [48],180 gAi/ha
same,GR50,Avena sterilis [49],>1312 gAi/ha
same,Survival,Avena sterilis [50],40%
same,Survival,Avena sterilis [51],100%
same,Survival,Avena sterilis [52],40%
same,Survival,Avena sterilis [53],43%
same,Survival,Avena sterilis [54],43%
same,GR50,Avena sterilis [55],>1312 gAi/ha
same,Survival,Avena sterilis [56],67%
same,Survival,Avena sterilis [57],80%
same,Survival,Avena sterilis [58],97%
COC(=O)C(C)Oc1ccc(Oc2ccc(Cl)cc2Cl)cc1 (stereo unspecified) [DICLOFOP-METHYL],Survival,Avena sterilis [1],40%
same,Survival,Avena sterilis [2],100%
same,GR50,Avena sterilis [3],>22740 gAi/ha
same,Survival,Avena sterilis [4],97%
same,Survival,Avena sterilis [5],100%
same,Survival,Avena sterilis [6],60%
same,GR50,Avena sterilis [7],14176 gAi/ha
same,Survival,Avena sterilis [8],90%
same,Survival,Avena sterilis [9],80%
same,Survival,Avena sterilis [10],80%
same,Survival,Avena sterilis [11],80%
same,Survival,Avena sterilis [12],100%
same,Survival,Avena sterilis [13],40%
same,Survival,Avena sterilis [14],97%
same,Survival,Avena sterilis [15],60%
same,Survival,Avena sterilis [16],83%
same,Survival,Avena sterilis [17],90%
same,Survival,Avena sterilis [18],80%
same,Survival,Avena sterilis [19],63%
same,Survival,Avena sterilis [20],33%
same,Survival,Avena sterilis [21],97%
same,Survival,Avena sterilis [22],27%
same,Survival,Avena sterilis [23],100%
same,GR50,Avena sterilis [24],11354 gAi/ha
same,Survival,Avena sterilis [25],73%
same,Survival,Avena sterilis [26],100%
same,Survival,Avena sterilis [27],100%
same,GR50,Avena sterilis [28],>22740 gAi/ha
same,Survival,Avena sterilis [29],100%
same,Survival,Avena sterilis [30],70%
same,Survival,Avena sterilis [31],80%
same,Survival,Avena sterilis [32],97%
same,Survival,Avena sterilis [33],73%
same,Survival,Avena sterilis [34],40%
same,Survival,Avena sterilis [35],70%
same,GR50,Avena sterilis [36],21999 gAi/ha
same,Survival,Avena sterilis [37],60%
same,GR50,Avena sterilis [38],10199 gAi/ha
same,Survival,Avena sterilis [39],100%
same,Survival,Avena sterilis [40],60%
same,Survival,Avena sterilis [41],100%
same,Survival,Avena sterilis [42],60%
same,GR50,Avena sterilis [43],506 gAi/ha
same,Survival,Avena sterilis [44],70%
same,GR50,Avena sterilis [45],8389 gAi/ha
same,Survival,Avena sterilis [46],33%
same,Survival,Avena sterilis [47],100%
same,GR50,Avena sterilis [48],4859 gAi/ha
same,GR50,Avena sterilis [49],>22740 gAi/ha
same,Survival,Avena sterilis [50],50%
same,Survival,Avena sterilis [51],100%
same,Survival,Avena sterilis [52],90%
same,Survival,Avena sterilis [53],63%
same,Survival,Avena sterilis [54],37%
same,GR50,Avena sterilis [55],13359 gAi/ha
same,Survival,Avena sterilis [56],80%
same,Survival,Avena sterilis [57],80%
same,Survival,Avena sterilis [58],100%
